Data from PMC10409285 (PLOS Pathogens, 2023).
“And” between values parts separate entries of the source, which are not always exact repeats. Equal values may be shown once. Read-outs that look alike come from different tables or passages of the source. No end group written: not given here.

How the values were obtained:
[1] = target: DR2a (DRB5*01:01) (Homo sapiens, UniProt P01903+Q30154); assay: fluorescence polarization competition binding assay, DR2a
[2] = target: T1, DR2b (DRB1*15:01) (Homo sapiens, UniProt P01903+P01911); assay: fluorescence polarization competition binding assay, DR2b; conditions: mean of two independent experiments
T1 construct: Soluble DRB1*15:01 and DRB5*01:01 with a covalently linked CLIP peptides; covalently linked CLIP peptide (3C-protease-cleavable linker) (cleaved yes); purchased NIH Tetramer Core Facility / Emory University (a gift of Drs. John Altman and Richard Willis, not bought)

[3] = target: DP4.1 (HLA-DPA1*01:03/DPB1*04:01) (Homo sapiens, UniProt P04440+P20036); assay: fluorescence polarization competition binding assay, DP4.1
[4] = fluorescence polarization competition, […], mean of two independent experiments, read-out: Mean IC50, DR2a (DRB5*01:01)
[5] = fluorescence polarization competition, soluble DP4.1-Clip 250 nM, 25 nM Alexa488 oxytocinase probe peptide, 500 nM HLA-DM, 24 h 37°C, mean of two independent experiments, read-out: Mean IC50, DPA*01:03/DPB1*04:01

Row | Compound | IC50 [2] [µM] | IC50 [3, 5] [µM] | also measured
1 | CC[C@H](C)[C@H](NC(=O)[C@@H](NC(=O)[C@H](CC(N)=O)NC(=O)[C@H](CO)NC(=O)[C@H](CCCCN)NC(=O)[C@H](CCC(=O)O)NC(=O)[C@@H](NC(=O)[C@H](CO)NC(=O)[C@H](C)NC(=O)[C@H](Cc1ccccc1)NC(=O)[C@H](Cc1ccc(O)cc1)NC(=O)[C@@H](NC(=O)CNC(=O)[C@H](CC(=O)O)NC(=O)[C@H](CC(N)=O)NC(=O)[C@@H](N)Cc1ccccc1)C(C)C)[C@@H](C)O)[C@@H](C)CC)C(=O)O [S#18 (CoV2)] | 777 |  | IC50 [1, 4]: 41.3 µM
2 | CC[C@H](C)[C@H](NC(=O)CNC(=O)[C@H](CC(N)=O)NC(=O)[C@@H](NC(=O)[C@H](Cc1ccccc1)NC(=O)[C@@H](N)CC(=O)O)[C@@H](C)CC)C(=O)N[C@@H](Cc1ccccc1)C(=O)N[C@@H](C)C(=O)N[C@@H](CCCCN)C(=O)N[C@H](C(=O)N[C@@H](CCCCN)C(=O)N[C@@H](CC(N)=O)C(=O)N[C@H](C(=O)N[C@@H](CCCCN)C(=O)N[C@H](C(=O)N[C@H](C(=O)N[C@@H](CCCCN)C(=O)O)[C@@H](C)CC)C(C)C)[C@@H](C)O)C(C)C [Peptide P12] | 17.1 |  | IC50 [1]: < 1 µM and 0.14 µM
3 | CC(C)C[C@H](NC(=O)[C@H](C)NC(=O)[C@H](C)NC(=O)[C@@H](N)CC(C)C)C(=O)N[C@@H](CC(N)=O)C(=O)N[C@H](C(=O)N[C@@H](Cc1ccccc1)C(=O)N[C@H](C(=O)N[C@@H](CO)C(=O)N[C@@H](Cc1c[nH]cn1)C(=O)N[C@H](C(=O)N[C@@H](CC(C)C)C(=O)N[C@H](C(=O)N[C@@H](CCCCN)C(=O)N[C@@H](Cc1ccc(O)cc1)C(=O)O)[C@@H](C)O)[C@@H](C)O)C(C)C)C(C)C [Peptide P11.229E] | 0.21 |  | IC50 [1]: 2.1 µM
4 | CC[C@H](C)[C@H](NC(=O)[C@@H](NC(=O)CNC(=O)[C@H](CC(N)=O)NC(=O)[C@H](CCC(=O)O)NC(=O)[C@H](CC(N)=O)NC(=O)[C@H](Cc1ccc(O)cc1)NC(=O)[C@H](CCCCN)NC(=O)[C@H](CC(C)C)NC(=O)[C@H](CC(C)C)NC(=O)[C@H](Cc1ccccc1)NC(=O)[C@@H](NC(=O)[C@H](CCCNC(=N)N)NC(=O)[C@@H]1CCCN1C(=O)[C@@H](N)CCC(N)=O)[C@@H](C)O)[C@@H](C)O)C(=O)N[C@H](C(=O)O)[C@@H](C)O [S#55 (CoV2)] | 3.7 |  | IC50 [1, 4]: 66.2 µM
5 | LFYTQVYKNMAVYRS [Peptide P9] | 0.22 |  | IC50 [1]: < 1 µM and 0.4 µM
6 | CC[C@H](C)[C@H](NC(=O)[C@H](Cc1ccccc1)NC(=O)[C@H](CO)NC(=O)[C@H](CCCNC(=N)N)NC(=O)[C@H](CCCCN)NC(=O)[C@H](CO)NC(=O)[C@@H]1CCCN1C(=O)[C@@H](N)CCCCN)C(=O)N[C@@H](CCC(=O)O)C(=O)N[C@@H](CC(=O)O)C(=O)N[C@@H](CC(C)C)C(=O)N[C@@H](CC(C)C)C(=O)N[C@@H](Cc1ccccc1)C(=O)N[C@@H](CC(N)=O)C(=O)N[C@@H](CCCCN)C(=O)N[C@H](C(=O)O)C(C)C [S#163 (CoV2)] |  | 0.29 | 
7 | CC(C)[C@H](NC(=O)[C@H](CC(N)=O)NC(=O)CNC(=O)CNC(=O)[C@H](CO)NC(=O)[C@@H]1CCCN1)C(=O)N[C@H](C(=O)N1CCC[C@H]1C(=O)N[C@@H](Cc1ccc(O)cc1)C(=O)N[C@@H](Cc1ccc(O)cc1)C(=O)N[C@@H](CO)C(=O)N[C@@H](Cc1c[nH]c2ccccc12)C(=O)N[C@@H](Cc1ccccc1)C(=O)N[C@@H](CO)C(=O)NCC(=O)O)C(C)C [Peptide P10] | 0.26 |  | IC50 [1]: 72.9 µM
8 | CC[C@H](C)[C@H](NC(=O)CNC(=O)[C@H](CC(=O)O)NC(=O)[C@H](CCC(N)=O)NC(=O)[C@H](CC(N)=O)NC(=O)[C@H](Cc1ccccc1)NC(=O)[C@H](C)NC(=O)[C@H](CC(C)C)NC(=O)[C@H](CC(C)C)NC(=O)[C@H](Cc1ccc(O)cc1)NC(=O)[C@H](CCC(N)=O)NC(=O)[C@H](CCCNC(=N)N)NC(=O)[C@@H](N)CO)C(=O)N[C@H](C(=O)N[C@@H](Cc1ccccc1)C(=O)N[C@@H](CC(N)=O)C(=O)O)[C@@H](C)CC [Peptide P13] |  |  | IC50 [1]: 43.8 µM
9 | CC[C@H](C)[C@H](NC(=O)[C@H](Cc1ccccc1)NC(=O)[C@@H](N)CO)C(=O)N[C@@H](CCC(=O)O)C(=O)N[C@@H](CC(=O)O)C(=O)N[C@@H](CC(C)C)C(=O)N[C@@H](CC(C)C)C(=O)N[C@@H](Cc1ccccc1)C(=O)N[C@@H](CC(N)=O)C(=O)N[C@@H](CCCCN)C(=O)N[C@H](C(=O)N[C@H](C(=O)N[C@@H](CC(C)C)C(=O)N[C@@H](C)C(=O)N[C@@H](CC(=O)O)C(=O)N[C@@H](C)C(=O)O)[C@@H](C)O)C(C)C [S#164 (CoV2)] |  | 128 | 
10 | CC[C@H](C)[C@H](NC(=O)[C@@H](NC(=O)[C@@H](N)CO)[C@@H](C)CC)C(=O)N[C@@H](C)C(=O)N[C@@H](Cc1ccc(O)cc1)C(=O)N[C@H](C(=O)N[C@@H](CCSC)C(=O)N[C@@H](CO)C(=O)N[C@@H](CC(C)C)C(=O)NCC(=O)N[C@@H](C)C(=O)N[C@@H](CCC(=O)O)C(=O)N[C@@H](CC(N)=O)C(=O)N[C@@H](CO)C(=O)N[C@H](C(=O)N[C@@H](C)C(=O)O)C(C)C)[C@@H](C)O [S#139 (CoV2)] |  | 292 | 
11 | CC[C@H](C)[C@H](NC(=O)CNC(=O)[C@H](CC(N)=O)NC(=O)[C@@H](NC(=O)[C@H](Cc1ccccc1)NC(=O)[C@H](CC(=O)O)NC(=O)[C@H](CO)NC(=O)[C@@H](N)CC(C)C)[C@@H](C)CC)C(=O)N[C@@H](Cc1ccccc1)C(=O)N[C@@H](C)C(=O)N[C@@H](CCCCN)C(=O)N[C@H](C(=O)N[C@@H](CCCCN)C(=O)N[C@@H](CC(N)=O)C(=O)N[C@H](C(=O)N[C@@H](CCCCN)C(=O)O)[C@@H](C)O)C(C)C [Peptide P3] |  |  | IC50 [3]: 3.16 µM
12 | CC[C@H](C)[C@H](NC(=O)[C@@H](NC(=O)CNC(=O)[C@H](CC(N)=O)NC(=O)[C@H](CCC(=O)O)NC(=O)[C@H](CC(N)=O)NC(=O)[C@H](Cc1ccc(O)cc1)NC(=O)[C@H](CCCCN)NC(=O)[C@H](CC(C)C)NC(=O)[C@@H](N)CC(C)C)[C@@H](C)O)C(=O)N[C@H](C(=O)N[C@@H](CC(=O)O)C(=O)N[C@@H](C)C(=O)N[C@H](C(=O)N[C@@H](CC(=O)O)C(=O)N[C@@H](CS)C(=O)O)C(C)C)[C@@H](C)O [S#56 (CoV2)] | 39.8 |  | IC50 [1, 4]: 41.1 µM
13 | CC(C)C[C@H](NC(=O)[C@H](C)NC(=O)[C@@H](NC(=O)[C@@H](N)CC(C)C)[C@@H](C)O)C(=O)N[C@@H](CC(N)=O)C(=O)N[C@@H](C)C(=O)N[C@@H](Cc1ccc(O)cc1)C(=O)N[C@H](C(=O)N[C@@H](CO)C(=O)N[C@@H](CCC(N)=O)C(=O)N[C@@H](CCC(N)=O)C(=O)N[C@@H](CC(C)C)C(=O)N[C@@H](CO)C(=O)N[C@@H](CC(=O)O)C(=O)N[C@@H](CO)C(=O)O)C(C)C [Peptide P11] | 0.14 |  | IC50 [1]: 63.5 µM
14 | CC[C@H](C)[C@H](NC(=O)[C@H](CO)NC(=O)[C@H](CCC(N)=O)NC(=O)[C@H](CO)NC(=O)[C@H](C)NC(=O)[C@@H](NC(=O)[C@@H](N)CO)C(C)C)C(=O)N[C@H](C(=O)N[C@@H](C)C(=O)N[C@@H](Cc1ccc(O)cc1)C(=O)N[C@H](C(=O)N[C@@H](CCSC)C(=O)N[C@@H](CO)C(=O)N[C@@H](CC(C)C)C(=O)NCC(=O)N[C@@H](C)C(=O)O)[C@@H](C)O)[C@@H](C)CC [S#138 (CoV2)] |  | 438 | 
15 | QGLPNNTASWFTALTQH [N#7 (CoV2)] | 507 |  | IC50 [1, 4]: 204 µM
16 | PSASAFFGMSRIGMEVT [N#45 (CoV2)] |  | 544 | 
17 | CC[C@H](C)[C@H](N)C(=O)N[C@H](C(=O)N[C@H](C(=O)NCC(=O)N[C@@H](Cc1ccc(O)cc1)C(=O)N[C@@H](CCCNC(=N)N)C(=O)N[C@@H](Cc1ccccc1)C(=O)N[C@H](C(=O)N[C@@H](CC(N)=O)C(=O)N[C@@H](Cc1ccccc1)C(=O)N[C@@H](CCC(=O)O)C(=O)N1CCC[C@H]1C(=O)N[C@@H](Cc1ccccc1)C(=O)N[C@H](C(=O)O)[C@@H](C)O)[C@@H](C)O)[C@@H](C)O)[C@@H](C)O [Peptide P5] |  |  | IC50 [3]: < 1 µM and 0.3 µM
18 | CC(C)C[C@H](NC(=O)[C@H](Cc1ccccc1)NC(=O)[C@@H](NC(=O)[C@@H](NC(=O)CNC(=O)[C@H](Cc1c[nH]cn1)NC(=O)[C@@H]1CCCN1C(=O)[C@H](C)N)C(C)C)C(C)C)C(=O)N[C@@H](Cc1c[nH]cn1)C(=O)N[C@H](C(=O)N[C@H](C(=O)N[C@@H](Cc1ccc(O)cc1)C(=O)N[C@H](C(=O)N1CCC[C@H]1C(=O)N[C@@H](C)C(=O)N[C@@H](CCC(N)=O)C(=O)O)C(C)C)[C@@H](C)O)C(C)C [S#212 (CoV2)] |  | 253 | 
19 | YLAISNELLLTVPTK [Peptide P1] |  |  | IC50 [3]: < 1 µM and 0.41 µM
20 | CC(C)C[C@H](NC(=O)[C@H](CCC(=O)O)NC(=O)[C@H](CC(C)C)NC(=O)[C@H](CCCNC(=N)N)NC(=O)[C@H](CO)NC(=O)CNC(=O)[C@H](Cc1ccccc1)NC(=O)[C@H](Cc1ccccc1)NC(=O)[C@H](Cc1ccccc1)NC(=O)[C@H](C)NC(=O)CN)C(=O)N[C@@H](C)C(=O)N[C@@H](CCCCN)C(=O)N[C@H](C(=O)N[C@@H](CCC(N)=O)C(=O)N[C@@H](CC(N)=O)C(=O)O)C(C)C [Peptide P2] |  |  | IC50 [3]: 118 µM
21 | CC(C)C[C@H](NC(=O)[C@@H](NC(=O)[C@@H]1CCCN1C(=O)[C@@H](N)CC(N)=O)C(C)C)C(=O)N1CCC[C@H]1C(=O)N[C@@H](Cc1ccccc1)C(=O)N[C@@H](CC(N)=O)C(=O)N[C@@H](CC(=O)O)C(=O)NCC(=O)N[C@H](C(=O)N[C@@H](Cc1ccc(O)cc1)C(=O)N[C@@H](Cc1ccccc1)C(=O)N[C@@H](C)C(=O)N[C@@H](CO)C(=O)N[C@H](C(=O)N[C@@H](CCC(=O)O)C(=O)O)[C@@H](C)O)C(C)C [S#17 (CoV2)] |  | 76 | 
